The target in assay [1] is T1, hURAT1 (Homo sapiens, UniProt Q96S37).
T1 sequence (Q96S37 1-553): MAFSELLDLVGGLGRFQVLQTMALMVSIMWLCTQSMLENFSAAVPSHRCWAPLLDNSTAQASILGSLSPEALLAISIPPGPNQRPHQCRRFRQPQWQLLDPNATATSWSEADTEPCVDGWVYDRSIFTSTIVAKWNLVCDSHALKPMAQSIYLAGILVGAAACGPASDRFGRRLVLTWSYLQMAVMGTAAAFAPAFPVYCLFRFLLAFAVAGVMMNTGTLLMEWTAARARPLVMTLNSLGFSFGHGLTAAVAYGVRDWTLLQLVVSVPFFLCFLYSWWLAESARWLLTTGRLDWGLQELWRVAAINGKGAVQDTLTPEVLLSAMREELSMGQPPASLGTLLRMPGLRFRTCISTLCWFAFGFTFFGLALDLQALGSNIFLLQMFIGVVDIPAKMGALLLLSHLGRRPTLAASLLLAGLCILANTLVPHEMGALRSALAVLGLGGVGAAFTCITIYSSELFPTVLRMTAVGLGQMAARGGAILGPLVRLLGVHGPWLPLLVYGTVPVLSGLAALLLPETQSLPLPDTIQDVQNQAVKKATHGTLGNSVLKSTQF
It is filed as cell-based. The following applies: for KT urate / Vmax: fit of the data set with this inhibitor, 95% CI; for Mode of inhibition of [14C]-urate uptake: competitive versus non-competitive fits.

For assay [2], the system named is URAT1CS. The format is cell-based. The following applies: HEK293T cells expressing hURAT1 versus URAT1CS.

Like-named read-outs stand apart in the source and are kept apart here.

Data on 2 molecules can be found in paper PMC12137875 (Nature Communications, 2025).

`CCc1oc2ccccc2c1C(=O)c1cc(Br)c(O)c(Br)c1` [BBR, benzbromarone]: in assay [1] (Competitive model), the KT urate is 26.08 [11.29–48.59] µM and the Vmax is 1591 [1355–1846] pmol min^−1 mg^−1. In assay [1] (Non-competitive model), the KT urate was 32.4 [20.7–47.9] µM and the Vmax is 1700 [1530–1881] pmol min^−1 mg^−1. Moreover, in assay [1], the “Mode of inhibition of [14C]-urate uptake” value is “non-competitively”. In addition, in assay [2], the “Inhibitor binding to URAT1CS as judged from IC50” value is “high affinity”.
For the molecule `O=C(O)CSc1nnc(Br)n1-c1ccc(C2CC2)c2ccccc12` [LESU, lesinurad], in assay [1] (Competitive model), the KT urate is 162.8 [126.4–210.1] µM and the Vmax is 3625 [3335–3955] pmol min^−1 mg^−1. In assay [1] (Non-competitive model), the KT urate is 175.1 [148.8–206.5] µM and the Vmax was 3725 [3522–3947] pmol min^−1 mg^−1. In assay [1], the “Mode of inhibition of [14C]-urate uptake” value is “non-competitively”.
